Results as given in patent US11976083B2, “Inhibitors of peptidylarginine deiminases” (Gilead Sciences, Inc., priority 2020, dated 2024).

molecular target: T1, human PAD4 (Homo sapiens, UniProt Q9UM07); assay: In vitro PAD4 BAEE biochemical assay; settings: BAEE substrate 3 mM, 5 nM PAD4, 2 mM calcium chloride; geometric mean of multiple experiments
T1 construct: human PAD4 (NM_012387), A2-P663, was PCR amplified; His-SUMO (N, cleaved yes); made in house; host or cells: E. coli BL21(DE3)
Outline: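 PAD4 5 nM, CaCl2 2 mM, BAEE 3 mM final; 50 mM MOPS pH 7.6, 50 mM NaCl, 0.05% Tween-20, 2 mM DTT. Cpd + enzyme 30 min 25 °C; substrate 2 h 25 °C; EDTA stop; OPA detection 1 h. IC50 4-parameter fit.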

T1 sequence (Q9UM07 2-663): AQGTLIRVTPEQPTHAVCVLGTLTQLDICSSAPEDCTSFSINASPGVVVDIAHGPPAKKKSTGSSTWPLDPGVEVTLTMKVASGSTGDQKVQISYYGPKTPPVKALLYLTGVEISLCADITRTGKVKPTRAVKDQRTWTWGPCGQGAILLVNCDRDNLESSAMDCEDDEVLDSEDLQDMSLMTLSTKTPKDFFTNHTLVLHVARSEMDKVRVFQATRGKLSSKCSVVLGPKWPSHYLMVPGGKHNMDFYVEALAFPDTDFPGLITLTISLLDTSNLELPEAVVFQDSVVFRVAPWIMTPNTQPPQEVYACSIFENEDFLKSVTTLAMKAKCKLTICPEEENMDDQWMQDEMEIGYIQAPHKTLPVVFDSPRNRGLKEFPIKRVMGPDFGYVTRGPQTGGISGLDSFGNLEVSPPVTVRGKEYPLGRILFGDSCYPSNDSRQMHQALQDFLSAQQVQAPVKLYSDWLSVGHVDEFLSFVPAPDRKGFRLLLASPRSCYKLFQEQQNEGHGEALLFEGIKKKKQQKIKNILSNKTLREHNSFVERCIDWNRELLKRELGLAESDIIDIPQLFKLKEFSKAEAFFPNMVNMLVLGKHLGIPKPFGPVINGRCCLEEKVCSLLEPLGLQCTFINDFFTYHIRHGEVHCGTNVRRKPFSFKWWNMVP

Row | Compound | IC50 [nM]
1 | CO[C@@H]1CCN(C(=O)c2cc(F)c3c(c2)nc(-c2cc4ccc5nc4n2CCCCCc2cc(Cl)ncc2C(=O)N[C@@H]5C)n3C)C[C@@H]1N [Example 744, (2~{R})-17-[5-[(3~{S},4~ {R})-3-amino-4-methoxy-piperidine-1-carbonyl]-7-fluoro-1-methyl-benzimidazol-2-yl]-8-chloro-2-methyl-3,7,16,22-tetrazatetracyclo [14.5.2.0^{5,10).0^{19,23}] tricosa-1(22),5(10),6,8,17,19(23), 20-heptaen-4-one] | 96
2 | COc1cc(C(=O)N2[C@H]3CC[C@@H]2[C@H](N)C3)cc2nc(-c3cc4ccc5cc4n3CCCCCCC3(CC3)C(=O)N[C@@H]5C)n(C3CC3)c12 [Example 225, (11~{R})-17-[5-[(1~{R},2~{R},4~{S})-2-amino-7-azabicyclo[2.2.1]heptane-7-carbonyl]-1-cyclopropyl-7-methoxy-benzimidazol-2-yl]-11-methyl-spiro[1,10-diazatricyclo[10.5.2.0^{15,18}]nonadeca-12(19),13,15(18),16-tetraene-8,1′-cyclopropane]-9-one] | 73
3 | COc1cc(C(=O)N2CC[C@@H](C)[C@@H](N)C2)cc2nc(-c3cc4ccc5nc4n3CCCCCCC(C)(C)C(=O)N[C@@H]5C)n(C)c12 [Example 196, (11~{R})-17-[5-[(3~{R},4~{R})-3-amino-4-methyl-piperidine-1-carbonyl]-7-methoxy-1-methyl-benzimidazol-2-yl]-8,8,11-trimethyl-1,10,19-triazatricyclo[10.5.2.0^{15,18}]nonadeca-12(19),13,15(18),16-tetraen-9-one] | 116
4 | COc1cc(C(=O)N2[C@H]3CC[C@@H]2[C@H](N)C3)cc2nc(-c3cc4ccc5nc4n3CC(C)(C)CCCCCC(=O)N[C@@H]5C)n(C)c12 [Example 141, (11~{R})-17-[5-[(1~{R},2~{R},4~{S})-2-amino-7-azabicyclo[2.2.1]heptane-7-carbonyl]-7-methoxy-1-methyl-benzimidazol-2-yl]-3,3,11-trimethyl-1,10,19-triazatricyclo[10.5.2.0^{15,18}]nonadeca-12(19),13,15(18),16-tetraen-9-one] | 68
5 | COc1cc(C(=O)N2[C@H]3CC[C@@H]2[C@H](N)C3)cc2nc(-c3cc4ccc5nc4n3CCCCCCCC3(CCC3)C(=O)N[C@@H]5C)n(C)c12 [Example 280] | 64
6 | COc1cc(C(=O)N2C[C@H]3OC[C@@H]2[C@@H]3N)cc2nc(-c3cc4ccc5nc4n3CCCCCCC(C)(C)C(=O)N[C@@H]5C)n(C)c12 [Example 708, (11~{R})-17-[5-[(1~{R},4~{S), 7~{S})-7-amino-2-oxa-5-azabicyclo[2.2.1]heptane-5-carbonyl]-7-methoxy-1-methyl-benzimidazol-2-yl]-8,8,11-trimethyl-1,10,19-triazatricyclo[10.5.2.0^ {15,18}]nonadeca-12(19),13,15(18),16-tetraen-9-one] | 91
7 | COc1cc(C(=O)N2CC[C@@H](OC)[C@@H](N)C2)cc2nc(-c3cc4ccc5nc4n3CCC/C=C/c3ccc(Cl)nc3C(=O)N[C@@H]5C)n(C)c12 [Example 781, (2~{R},11~{E})-17-[5-[(3~ {S},4~{R})-3-amino-4-methoxy-piperidine-1-carbonyl]-7-methoxy-1-methyl-benzimidazol-2-yl]-7-chloro-2-methyl-3,6,16,22-tetrazatetracyclo[14.5.2.0^ {5,10}.0^{19,23}]tricosa-1(21),5(10),6,8,11,17,19,22-octaen-4-one] | 73
8 | COc1cc(C(=O)N2[C@H]3CC[C@@H]2[C@H](N)C3)cc2nc(-c3cc4ccc5nc4n3CCCCCCNC(=O)c3ccccc3-5)n(C)c12 [Example 48, 17-[5-[(1~{R),2~{R},4~{S})-2-amino-7-azabicyclo[2.2.1]heptane-7-carbonyl]-7-methoxy-1-methyl-benzimidazol-2-yl]-9,16,22-triazatetracyclo[14.5.2.0^{2,7}.0^{19,23}] tricosa-1(22),2,4,6,17,19(23),20-heptaen-8-one] | 75

Compounds with a lower IC50, results first:

Row | IC50 [nM] | Compound
9 | 46 | COc1cc(C(=O)N2C[C@H](N)[C@@H]3CC[C@H]2C3)cc2nc(-c3cc4ccc5nc4n3CC(F)(F)CCC[C@@H]3C[C@@]3(C)C(=O)N[C@@H]5C)n(C3CC3)c12 [Example 924, (2~{R},5~{R},7~{R})-14-[5-[(1~{S),4~{R},5~{R})-4-amino-2-azabicyclo[3.2.1]octane-2-carbonyl]-1-cyclopropyl-7-methoxy-benzimidazol-2-yl]-11,11-difluoro-2,5-dimethyl-3,13,19-triazatetracyclo [11.5.2.0^{5,7}.0^{16,20}] icosa-1(19),14,16(20), 17-tetraen-4-one]
10 | 51 | COc1cc(C(=O)N2CCC[C@@H](N)[C@H]2C)cc2nc(-c3cc4ccc5nc4n3CCCCCc3ccnc(C4CC4)c3C(=O)N[C@@H]5C)n(C)c12 [Example 664, (2~{R})-17-[5-[(2~{R},3~ {R})-3-amino-2-methyl-piperidine-1-carbonyl]-7-methoxy-1-methyl-benzimidazol-2-yl]-6-cyclopropyl-2-methyl-3,7,16,22-tetrazatetracyclo[14.5.2.0^ {5,10}.0^{19,23}] tricosa-1(22),5,7,9,17,19(23), 20-heptaen-4-one]
11 | 38 | C[C@H]1NC(=O)c2c(ncc3ccccc23)CCCCCn2c(-c3nc4cc(C(=O)N5C[C@H](N)[C@@H]6CC[C@H]5C6)cc(F)c4n3C3CC3)cc3ccc1nc32 [Example 457, (2~{R})-21-[5-[(1~{S),4~{R},5~{R})-4-amino-2-azabicyclo[3.2.1]octane-2-carbonyl]-1-cyclopropyl-7-fluoro-benzimidazol-2-yl]-2-methyl-3,13,20,26-tetrazapentacyclo[18.5.2.0^{5,14}.0^ {6,11}.0^{23,27}]heptacosa-1(26),5(14),6(11),7,9,12,21,23(27),24-nonaen-4-one]
12 | 57 | COc1cc(C(=O)N2CCC[C@@H](N)C2)cc2nc(-c3cc4ccc5nc4n3CCCCC[C@H](OC)C(C)(C)C(=O)N[C@@H]5C)n(C)c12 [Example 154, (7~{S},11~{R})-17-[5-[(3~{R})-3-aminopiperidine-1-carbonyl]-7-methoxy-1-methyl-benzimidazol-2-yl]-7-methoxy-8,8,11-trimethyl-1,10,19-triazatricyclo[10.5.2.0^{15,18}]nonadeca-12(19),13,15(18),16-tetraen-9-one]
13 | 39 | COc1cc(C(=O)N2[C@H]3CC[C@@H]2[C@H](N)C3)cc2nc(-c3cc4ccc5nc4n3CCCCCN(C)C(=O)N[C@@H]5C)c(C)n12 [Example 210, (10~{R})-16-[7-[(1~{R},2~{R},4~{S})-2-amino-7-azabicyclo[2.2.1]heptane-7-carbonyl]-5-methoxy-3-methyl-imidazo[1,2-a]pyridin-2-yl]-7,10-dimethyl-1,7,9,18-tetrazatricyclo[9.5.2.0^{14,17}]octadeca-11(18),12,14(17),15-tetraen-8-one]
14 | 58 | COc1cc(C(=O)N2[C@H]3CC[C@@H]2[C@H](N)C3)cc2nc(-c3cc4ccc5nc4n3C[C@H]3C[C@H]3CCCC(C)(C)C(=O)N[C@@H]5C)n(C)c12 [Example 145, (3~{S},5~{R},12~{R})-18-[5-[(1~{R},2~{R},4~{S})-2-amino-7-azabicyclo[2.2.1]heptane-7-carbonyl]-7-methoxy-1-methyl-benzimidazol-2-yl]-9,9,12-trimethyl-1,11,20-triazatetracyclo[11.5.2.0^{3,5}.0^{16,19}] icosa-13(20),14,16(19),17-tetraen-10-one]
15 | 58 | COc1cc(C(=O)N2CC[C@@H](OC)[C@@H](N)C2)cc2nc(-c3cc4ccc5nc4n3CCCCCc3cccc(F)c3C(=O)N[C@@H]5C)n(C)c12 [Example 360, (2~{R})-17-[5-[(3~{S},4~{R})-3-amino-4-methoxy-piperidine-1-carbonyl]-7-methoxy-1-methyl-benzimidazol-2-yl]-6-fluoro-2-methyl-3,16,22-triazatetracyclo[14.5.2.0^{5,10}.0^{19,23}] tricosa-1(22),5,7,9,17,19(23),20-heptaen-4-one]
16 | 22 | CO[C@H]1C[C@@H]1n1c(-c2cc3ccc4nc3n2CC(F)(F)CCC[C@@H]2C[C@H]2C(=O)N[C@@H]4C)nc2cc(C(=O)N3CCC[C@@H](N)[C@H]3C)cc(F)c21 [Example 802, (2~{R},5~{R},7~{R})-14-[5-[(2~{R},3~{R})-3-amino-2-methyl-piperidine-1-carbonyl]-7-fluoro-1-[(1~{S},2~{S})-2-methoxycyclopropyl]benzimidazol-2-yl]-11,11-difluoro-2-methyl-3,13,19-triazatetracyclo [11.5.2.0^{5,7}.0^{16,20}] icosa-1(18),14,16,19-tetraen-4-one]
17 | 34 | COc1cc(C(=O)N2CC[C@@H](O)[C@@H](N)C2)cc2nc(-c3cc4ccc5nc4n3CC(F)(F)CCC[C@@H]3C[C@H]3C(=O)N[C@@H]5C)n(C)c12 [Example 680, (2~{R},5~{R},7~{R})-14-[5-[(3~{S},4~{R})-3-amino-4-hydroxy-piperidine-1-carbonyl]-7-methoxy-1-methyl-benzimidazol-2-yl]-11,11-difluoro-2-methyl-3,13,19-triazatetracyclo[11.5.2.0^ {5,7}.0^{16,20}]icosa-1(19), 14,16(20),17-tetraen-4-one]
18 | 49 | COc1cc(C(=O)N[C@H]2CNCC[C@@H]2F)cc2nc(-c3cc4ccc5nc4n3CCCCC[C@H]3C[C@H]3C(=O)N[C@@H]5C)n(C)c12 [Example 518]
19 | 62 | COc1cc(C(=O)N2CCC[C@@H](N)C2)cc2nc(-c3cc4ccc5cc4n3CCCCCCC3(CC3)C(=O)N[C@@H]5C)n(C3CC3)c12 [Example 159, (11~{R})-17-[5-[(3~{R})-3-aminopiperidine-1-carbonyl]-1-cyclopropyl-7-methoxy-benzimidazol-2-yl]-11-methyl-spiro[1,10-diazatricyclo[10.5.2.0^{15,18}]nonadeca-12(19),13,15(18),16-tetraene-8,1′-cyclopropane]-9-one]
